In PubChem BioAssay (NCI):
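Step 1: Grow cells in 96-well plates. Step 2: Expose to compound for 48 hours at 5 concentrations. Step 3: Interpolate endpoints linearly; if unreached, use highest concentration. At the TGI there is no net growth.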

How the values were obtained:
Experiment in all cases: inhibition of tumour cell growth, NCI panel, 48 h
HOP-92 NSCLC = system: HOP-92 NSCLC
MDA-MB-435 = system: MDA-MB-435
OVCAR-4 ovarian = system: OVCAR-4 ovarian
HCT-116 colon = system: HCT-116 colon
SNB-75 CNS = system: SNB-75 CNS
HS 578T breast = system: HS 578T breast
CCRF-CEM leukemia = system: CCRF-CEM leukemia
SNB-19 CNS = system: SNB-19 CNS
K-562 leukemia = system: K-562 leukemia
A498 renal = system: A498 renal
UACC-257 melanoma = system: UACC-257 melanoma
SN12C renal = system: SN12C renal
RXF 393 renal = system: RXF 393 renal
HCC-2998 colon = system: HCC-2998 colon
HL-60(TB) leukemia = system: HL-60(TB) leukemia
MDA-MB-231 breast = system: MDA-MB-231 breast
OVCAR-8 ovarian = system: OVCAR-8 ovarian
IGROV1 ovarian = system: IGROV1 ovarian
SK-MEL-2 melanoma = system: SK-MEL-2 melanoma
OVCAR-3 ovarian = system: OVCAR-3 ovarian
NCI-H522 lung = system: NCI-H522 lung
MALME-3M melanoma = system: MALME-3M melanoma
LOX IMVI melanoma = system: LOX IMVI melanoma
SK-MEL-28 melanoma = system: SK-MEL-28 melanoma
NCI-H460 lung = system: NCI-H460 lung
NCI/ADR-RES ovarian = system: NCI/ADR-RES ovarian
NCI-H23 lung = system: NCI-H23 lung
KM12 colon = system: KM12 colon
SF-268 CNS = system: SF-268 CNS
COLO 205 colon = system: COLO 205 colon
OVCAR-5 ovarian = system: OVCAR-5 ovarian
CAKI-1 renal = system: CAKI-1 renal
MOLT-4 leukemia = system: MOLT-4 leukemia
NCI-H226 lung = system: NCI-H226 lung
BT-549 breast = system: BT-549 breast
A549 NSCLC = system: A549 NSCLC
SR leukemia = system: SR leukemia
SF-295 CNS = system: SF-295 CNS
DU-145 prostate = system: DU-145 prostate
HOP-62 NSCLC = system: HOP-62 NSCLC
MDA-N = system: MDA-N
M14 melanoma = system: M14 melanoma
TK-10 renal = system: TK-10 renal
MCF7 breast = system: MCF7 breast
SF-539 CNS = system: SF-539 CNS
T-47D breast = system: T-47D breast
HCT-15 colon = system: HCT-15 colon
SK-MEL-5 melanoma = system: SK-MEL-5 melanoma
ACHN renal = system: ACHN renal
PC-3 prostate = system: PC-3 prostate
U251 CNS = system: U251 CNS
HT29 colon = system: HT29 colon
SW-620 colon = system: SW-620 colon
UACC-62 melanoma = system: UACC-62 melanoma
RPMI-8226 leukemia = system: RPMI-8226 leukemia
786-0 renal = system: 786-0 renal
EKVX NSCLC = system: EKVX NSCLC
SK-OV-3 ovarian = system: SK-OV-3 ovarian
UO-31 renal = system: UO-31 renal

`Nc1c(S(=O)(=O)O)cc(Nc2cccc(S(=O)(=O)/C=C/S(=O)(=O)O)c2)c2c1C(=O)c1ccccc1C2=O` was tested, and the TGI (HOP-92 NSCLC) was > 100 µM, the TGI (MDA-MB-435) was > 100 µM and the TGI (OVCAR-4 ovarian) was > 100 µM. For the same compound, the TGI (HCT-116 colon) was > 100 µM, the TGI (SNB-75 CNS) was > 100 µM and the TGI (HS 578T breast) was > 100 µM. The TGI (CCRF-CEM leukemia) was > 100 µM, the TGI (SNB-19 CNS) was > 100 µM and the TGI (K-562 leukemia) was > 100 µM. The TGI (A498 renal) was > 100 µM, the TGI (UACC-257 melanoma) was > 100 µM and the TGI (SN12C renal) was > 100 µM. For the same compound, the TGI (RXF 393 renal) was > 100 µM, the TGI (HCC-2998 colon) was > 100 µM and the TGI (HL-60(TB) leukemia) was > 100 µM. The TGI (MDA-MB-231 breast) was > 100 µM, the TGI (OVCAR-8 ovarian) was > 100 µM and the TGI (IGROV1 ovarian) was > 100 µM. For the same compound, the TGI (SK-MEL-2 melanoma) was > 100 µM, the TGI (OVCAR-3 ovarian) was > 100 µM and the TGI (NCI-H522 lung) was > 100 µM. The TGI (MALME-3M melanoma) was > 100 µM, the TGI (LOX IMVI melanoma) was > 100 µM and the TGI (SK-MEL-28 melanoma) was > 100 µM. For the same compound, the TGI (NCI-H460 lung) was > 100 µM, the TGI (NCI/ADR-RES ovarian) was > 100 µM and the TGI (NCI-H23 lung) was > 100 µM. For the same compound, the TGI (KM12 colon) was > 100 µM, the TGI (SF-268 CNS) was > 100 µM and the TGI (COLO 205 colon) was > 100 µM. For the same compound, the TGI (OVCAR-5 ovarian) was > 100 µM, the TGI (CAKI-1 renal) was > 100 µM and the TGI (MOLT-4 leukemia) was > 100 µM. For the same compound, the TGI (NCI-H226 lung) was > 100 µM, the TGI (BT-549 breast) was > 100 µM and the TGI (A549 NSCLC) was > 100 µM. The TGI (SR leukemia) was > 100 µM, the TGI (SF-295 CNS) was > 100 µM and the TGI (DU-145 prostate) was > 100 µM. The TGI (HOP-62 NSCLC) was > 100 µM, the TGI (MDA-N) was > 100 µM and the TGI (M14 melanoma) was > 100 µM. For the same compound, the TGI (TK-10 renal) was > 100 µM, the TGI (MCF7 breast) was > 100 µM and the TGI (SF-539 CNS) was > 100 µM. The TGI (T-47D breast) was > 100 µM, the TGI (HCT-15 colon) was > 100 µM and the TGI (SK-MEL-5 melanoma) was > 100 µM. The TGI (ACHN renal) was > 100 µM, the TGI (PC-3 prostate) was > 100 µM and the TGI (U251 CNS) was > 100 µM. The TGI (HT29 colon) was > 100 µM, the TGI (SW-620 colon) was > 100 µM and the TGI (UACC-62 melanoma) was > 100 µM. The TGI (RPMI-8226 leukemia) was > 100 µM, the TGI (786-0 renal) was > 100 µM and the TGI (EKVX NSCLC) was > 100 µM. For the same compound, the TGI (SK-OV-3 ovarian) was > 100 µM.

For `COc1cc2c(cc1Cl)n([O-])c(C#N)c(N1CCN(c3ccc([N+](=O)[O-])cc3)CC1)[n+]2=O`, the TGI (MDA-MB-435) was > 100 µM, the TGI (OVCAR-4 ovarian) was > 100 µM and the TGI (HCT-116 colon) was > 100 µM. For the same compound, the TGI (SNB-75 CNS) was > 70.6 µM, the TGI (HS 578T breast) was > 57.5 µM and the TGI (CCRF-CEM leukemia) was > 100 µM. The TGI (SNB-19 CNS) was > 100 µM, the TGI (K-562 leukemia) was > 100 µM and the TGI (UACC-257 melanoma) was > 100 µM. For the same compound, the TGI (SN12C renal) was > 100 µM, the TGI (RXF 393 renal) was > 100 µM and the TGI (HCC-2998 colon) was 78.8 µM. For the same compound, the TGI (HL-60(TB) leukemia) was > 100 µM, the TGI (MDA-MB-231 breast) was > 100 µM and the TGI (OVCAR-8 ovarian) was 60.1 µM. For the same compound, the TGI (IGROV1 ovarian) was 8.29 µM, the TGI (SK-MEL-2 melanoma) was > 100 µM and the TGI (OVCAR-3 ovarian) was > 100 µM. The TGI (NCI-H522 lung) was 41.6 µM, the TGI (MALME-3M melanoma) was 99.6 µM and the TGI (LOX IMVI melanoma) was 73.6 µM. The TGI (SK-MEL-28 melanoma) was > 100 µM, the TGI (NCI-H460 lung) was > 100 µM and the TGI (NCI/ADR-RES ovarian) was > 100 µM. The TGI (NCI-H23 lung) was 91.3 µM, the TGI (KM12 colon) was > 100 µM and the TGI (UO-31 renal) was > 100 µM. For the same compound, the TGI (SF-268 CNS) was > 84 µM, the TGI (COLO 205 colon) was > 100 µM and the TGI (OVCAR-5 ovarian) was > 100 µM. For the same compound, the TGI (CAKI-1 renal) was > 100 µM, the TGI (MOLT-4 leukemia) was > 68 µM and the TGI (NCI-H226 lung) was > 100 µM. For the same compound, the TGI (BT-549 breast) was > 100 µM, the TGI (A549 NSCLC) was > 100 µM and the TGI (SR leukemia) was > 30.7 µM. For the same compound, the TGI (SF-295 CNS) was > 100 µM, the TGI (DU-145 prostate) was > 100 µM and the TGI (HOP-62 NSCLC) was > 62.8 µM. The TGI (MDA-N) was > 100 µM, the TGI (M14 melanoma) was > 100 µM and the TGI (TK-10 renal) was > 100 µM. The TGI (MCF7 breast) was > 100 µM, the TGI (SF-539 CNS) was 44.3 µM and the TGI (T-47D breast) was > 81.5 µM. For the same compound, the TGI (HCT-15 colon) was > 100 µM, the TGI (SK-MEL-5 melanoma) was > 59.6 µM and the TGI (ACHN renal) was > 77.2 µM. The TGI (PC-3 prostate) was > 100 µM, the TGI (U251 CNS) was > 100 µM and the TGI (HT29 colon) was > 100 µM. For the same compound, the TGI (SW-620 colon) was > 100 µM, the TGI (UACC-62 melanoma) was > 72.9 µM and the TGI (RPMI-8226 leukemia) was > 100 µM. For the same compound, the TGI (786-0 renal) was > 100 µM, the TGI (EKVX NSCLC) was > 100 µM and the TGI (SK-OV-3 ovarian) was > 100 µM.
